Assay: in vitro
Details: human, hela cells, % viability

Point of comparison: `CC(Oc1cccc(F)c1)C(=O)N(Cc1cccnc1)CC1CCCO1` (centres unmarked) [CBK305313], viability at 28.5 h, 10 µM 108%. Against it:
- CN(c1ccccc1)C1CCN(c2nc3c(cnn3C)c(=O)[nH]2)CC1 [CBK305215] — lower, 96.3%
- COc1ncccc1CNC(=O)Nc1cccn(CC(F)(F)F)c1=O [CBK305216] — higher, 113%
- CN(C)c1cccc(C2CCCN2c2nc3c(cnn3C)c(=O)[nH]2)c1 (centres unmarked) [CBK305220] — lower, 78.6%
- O=C(NCC(CO)Cc1ccccn1)c1ccc2cc[nH]c2c1 (centres unmarked) [CBK305222] — lower, 81.6%
- O=C(NC1CCN(CC(F)(F)F)C1=O)c1cc(Cl)ccn1 (centres unmarked) [CBK305223] — lower, 98.6%
- CCN1CCCC(NC(=O)COc2nn(C)c3nc(C)cc(C)c23)C1 (centres unmarked) [CBK305224] — higher, 113%
- CN1CCCc2ccc(S(=O)(=O)Nc3nc4ncccn4n3)cc21 [CBK305226] — lower, 85.7%
- CCn1cnc(S(=O)(=O)N2CCC(OCc3ccccc3)CC2)c1 [CBK305228] — lower, 73.1%
- Cc1cc(NC(=O)CN2CCOC(CNc3cccnn3)C2)on1 (centres unmarked) [CBK305231] — higher, 109%
- COc1cccc(CC(=O)N2CCOc3ncccc32)c1 [CBK305235] — lower, 98.4%
- CC1(C)CCCC1NC(=O)NCc1cccc(-c2nnc[nH]2)c1 (centres unmarked) [CBK305236] — lower, 83.9%
- Cc1cc(NC(=O)CN(C)CCNC(=O)C2CCCC2)no1 [CBK305237] — lower, 84.9%
- Cc1cc(C(=O)CSc2nccc(C(F)(F)F)n2)c(C)n1C1CC1 [CBK305238] — lower, 80%
- CS(=O)(=O)N1CCCc2cc(-c3csc(-c4cnccn4)n3)ccc21 [CBK305239] — lower, 95.4%
- Cc1cc(C2CCCN(C(=O)CC3OCCc4sccc43)C2)n[nH]1 (centres unmarked) [CBK305241] — lower, 94.3%
- Cc1ccc(C(=O)NC2CCN(C(=O)Nc3cc(Cl)ccc3F)CC2)s1 [CBK305243] — lower, 88.8%
- Cc1nn(C)c(Cl)c1CN1CCOC(c2ccccc2)C1 (centres unmarked) [CBK305244] — lower, 83.2%
- Cc1nc2ccccc2n1CC(=O)N(Cc1cccnc1)C1CC1 [CBK305248] — higher, 109%
- Cc1cc(O)nc(C(C)N2CCN(Cc3noc(C(C)(C)C)n3)CC2)n1 (centres unmarked) [CBK305249] — lower, 95.4%
- CCn1c(CN2CCCC2c2noc(C)n2)nc2cc(F)ccc21 (centres unmarked) [CBK305250] — lower, 55.9%
- O=C(CN1CC(O)CC1c1cccc(C(F)(F)F)c1)NCc1cccs1 (centres unmarked) [CBK305253] — lower, 82.6%
- Cc1nc(-c2ccc(NCC(O)c3ccco3)nc2)[nH]c(=O)c1C (centres unmarked) [CBK305254] — lower, 94.6%
- Cc1cccn2c(=O)cc(CN3CCc4c(nc(C5CC5)n4C)C3)nc12 [CBK305256] — lower, 99.2%
- CC(C)(C)CC(=O)NS(=O)(=O)c1cccc(-c2nnco2)c1 [CBK305258] — lower, 78%
- Cc1cccc(CN2CCC(NC(=O)NCc3ccn(C)c3)CC2)c1 [CBK305259] — lower, 105%
- Cc1ccn(-c2ccc(N3CCC4(CC3)OCCO4)nn2)n1 [CBK305263] — lower, 91.5%
- O=C1C(n2c(=O)[nH]c3ccccc3c2=O)CCN1CC(F)(F)F (centres unmarked) [CBK305264] — lower, 104%
- COCCNC(=O)CN(C)c1cnc2ccccc2n1 [CBK305265] — lower, 89.2%
- Cc1cc(C)n(CC(=O)N2CCCCC2C(=O)O)n1 (centres unmarked) [CBK305266] — lower, 91.3%
- O=C(CC1CCCO1)NS(=O)(=O)c1cccc(-c2nnco2)c1 (centres unmarked) [CBK305267] — lower, 94.3%
- N#CC1(NC(=O)CN2CCOC(Cn3cccn3)C2)CCCCC1 (centres unmarked) [CBK305268] — lower, 87.2%
- Cc1nc(CNC(=O)c2nn(-c3cccc(C(C)C)c3)cc2O)no1 [CBK305269] — lower, 89%
- CC(CNc1cc(=O)n2ccccc2n1)CN1CCCC1 (centres unmarked) [CBK305270] — lower, 99.1%
- COc1ccc(CN2CCCN(C(=O)c3ccc(C#N)cc3)CC2)cc1 [CBK305273] — lower, 91.4%
- O=C(c1cccc(O)c1)N1CCN(Cc2cn3ccsc3n2)CC1 [CBK305275] — lower, 76%
- CCOC(=O)C(CNC(=O)c1c(C)nn(C)c1C)Cc1ccccc1 (centres unmarked) [CBK305276] — lower, 90%
- CCn1ncc2c1CCCC2NC1CCN(c2ccccc2F)C1=O (centres unmarked) [CBK305279] — the same, 108%
- CCOc1cccc(CNC(=O)N2CCC(Cc3cnn(C)c3)C2)c1 (centres unmarked) [CBK305280] — higher, 115%
- COc1ccc(CN2CCCN(C(=O)c3cccc(C#N)c3)CC2)cc1 [CBK305281] — lower, 88.5%
- CCC(C)(NC(=O)c1ccn(-c2cc(C)ccc2OC)n1)C(=O)OC (centres unmarked) [CBK305282] — lower, 78.7%
- CC(C)OC(=O)Cc1nc(CN2CCc3sccc3C2C)cs1 (centres unmarked) [CBK305284] — lower, 85.3%
- COCCn1cc(C(=O)N2CCOC3CCCCC32)c2ccccc21 (centres unmarked) [CBK305288] — higher, 113%
- COCCn1cc(C(=O)N2CCCC2c2cc(C)on2)c2ccccc21 (centres unmarked) [CBK305289] — lower, 90.4%
- COCCN1CCCC(NS(=O)(=O)c2cccc(C(C)=O)c2)C1 (centres unmarked) [CBK305290] — lower, 94.7%
- Cc1nc(C)n(CC2CCCN(CC(=O)NCc3ccccn3)C2)n1 (centres unmarked) [CBK305291] — lower, 86.1%
- CC(=O)Nc1cccc(-n2nnnc2SCC2CCCN(C)C2)c1 (centres unmarked) [CBK305294] — the same, 108%
- CCOc1cc(NC(=O)N2CCC(Cc3cnn(C)c3)C2)ccc1C (centres unmarked) [CBK305295] — lower, 105%
- Cc1nc(C)c(C(=O)N2CCCC(C(=O)c3ccc(F)cc3)C2)s1 (centres unmarked) [CBK305296] — lower, 104%
- Cn1cc(CCNC(=O)NC2CCN(Cc3ccccn3)CC2)cn1 [CBK305297] — lower, 102%
- CCOCCCC(=O)N1CCN(Cc2nnc3n2CCCCC3)CC1 [CBK305298] — lower, 90.9%
- CC(C(=O)NC1(C#N)CCCCC1)N1CCOC(c2nccs2)C1 (centres unmarked) [CBK305299] — lower, 80.9%
- CSC(C)C(=O)N(C)C1CCN(c2ncnc3ccccc23)CC1 (centres unmarked) [CBK305300] — lower, 83.4%
- Cc1cccc(C(C)CNC(=O)N2CCC(Cc3cnn(C)c3)C2)c1 (centres unmarked) [CBK305301] — lower, 96.9%
- CCCN(CC(=O)NCc1ccco1)Cc1nnc(-c2ccco2)o1 [CBK305302] — higher, 111%
- CC(C)(C)C(=O)Nc1ccc(F)c(C(=O)N2CCc3[nH]ncc3C2)c1 [CBK305303] — lower, 104%
- Cc1noc(C)c1CNS(=O)(=O)N1CCOC(c2ccccc2)C1 (centres unmarked) [CBK305306] — lower, 83.2%
- CCOC1CCCN(C(=O)c2cccnc2Nc2cccc(F)c2)C1 (centres unmarked) [CBK305307] — lower, 86.9%
- Cc1nc(C)c(CCC(=O)N2CCCCC2Cn2cccn2)c(=O)[nH]1 (centres unmarked) [CBK305310] — lower, 102%
- Cn1c(C2CC2)nc2c1CCN(Cc1cn3cc(Cl)ccc3n1)C2 [CBK305314] — lower, 92.8%
- CCN(C(=O)Cc1cc(OC)ccc1Br)c1cccnc1 [CBK305318] — lower, 97.7%
- CC(NC(=O)CC1(N2CCOCC2)CCCC1)c1cccc(C#N)c1 (centres unmarked) [CBK305320] — lower, 106%
- CC(NC(=O)N1CCCN(Cc2cccs2)CC1)c1nncn1C (centres unmarked) [CBK305322] — lower, 80.3%
- N#Cc1cccc(C(=O)N2CCCN(Cc3ccc(Cl)cc3)CC2)c1 [CBK305323] — lower, 95.9%
- Cn1cc(CNCC2CCCN2c2cccnn2)c(-c2cccnc2)n1 (centres unmarked) [CBK305326] — lower, 96.2%
- CC(C)c1csc(C2CCN(C(=O)CCc3ccsc3)CC2)n1 [CBK305327] — lower, 104%
- Cc1cnn(C2CCCN(C(=O)CC3OCCc4sccc43)C2)c1 (centres unmarked) [CBK305329] — lower, 84.6%
- CCCc1nc(CN2CCN(c3ccc4nncn4n3)CC2)cs1 [CBK305330] — lower, 97.7%
- Cc1cc(C)n(CC2CCCCN2CC(=O)NC(C)c2ccco2)n1 (centres unmarked) [CBK305331] — lower, 87.9%
- N#Cc1c(CN2CCCC(c3noc(C4CC4)n3)C2)cn2ccccc12 (centres unmarked) [CBK305332] — lower, 98.7%
- Cc1cc(N2CCN(Cc3nc(C(C)(C)C)no3)CC2)nc(C(C)C)n1 [CBK305333] — lower, 96.3%
- Cc1cnn(CCC(=O)N2CCOC(c3nc(C(C)(C)C)n[nH]3)C2)c1 (centres unmarked) [CBK305336] — higher, 110%
- COc1ccc(CNC(=O)CN2CCCC(Cn3cncn3)C2)cc1 (centres unmarked) [CBK305339] — lower, 88.9%
- Cc1ccc(C(CNCc2cn(C)nc2-c2cccnc2)N(C)C)cc1 (centres unmarked) [CBK305343] — higher, 109%
- Cc1cccc(OCCNC(=O)CN2CCCC2Cn2cncn2)c1 (centres unmarked) [CBK305345] — lower, 102%
- CN(C(=O)c1ccccn1)C1CCN(c2ncnc3ccccc23)CC1 [CBK305346] — lower, 91.8%
- CCc1nc(CN2CCCC(NC(C(N)=O)c3ccccc3)C2)no1 (centres unmarked) [CBK305348] — lower, 97.4%
- COc1c(C)cnc(CNC2CCCN(Cc3noc(C)n3)C2)c1C (centres unmarked) [CBK305350] — lower, 92.3%
- Cc1cc(C)n(CC2CN(C(C)C(=O)NCc3ccco3)CCO2)n1 (centres unmarked) [CBK305351] — lower, 101%
- O=C(c1cn2ccccc2n1)N1CCCN(Cc2cscn2)CC1 [CBK305352] — lower, 104%
- COc1ccc(C)cc1-n1ccc(C(=O)NCC2(C)CCCS2)n1 (centres unmarked) [CBK305355] — lower, 83.3%
- CCc1cnc(CN(C)C2CCN(CC(=O)Nc3cccnc3)C2)o1 (centres unmarked) [CBK305358] — lower, 92%
- O=C(Nc1cccc(Cl)c1)N(Cc1ccncc1)CC1CCCO1 (centres unmarked) [CBK305362] — lower, 93%
- CCc1noc(C(C)N2CCN(CC(=O)NCc3ccco3)CC2)n1 (centres unmarked) [CBK305368] — higher, 116%
- Cc1cnn(CC2CCCN2C(=O)CC2OCCc3ccsc32)c1 (centres unmarked) [CBK305370] — lower, 86.5%
- CCc1nc(CN(C(C)=O)C2CCN(CCc3ccccn3)C2)no1 (centres unmarked) [CBK305372] — lower, 96.7%
- CCc1nc(CN2CCCC(NCc3ccc(C(N)=O)cc3)C2)no1 (centres unmarked) [CBK305373] — lower, 94.2%
- COc1ccc(C(=O)N2CCCN(Cc3ccc(C#N)cc3)CC2)cc1 [CBK305374] — lower, 94.7%
- CC(C)n1ccnc1CNc1cccc(OCC(=O)N2CCCC2)c1 [CBK305377] — lower, 97%
- COc1ccc(CNC(=O)CN2CCCCC2Cn2cccn2)cc1 (centres unmarked) [CBK305379] — lower, 93.1%
- CCOC(=O)c1cnn(C2CCCN(C(=O)c3cscc3C)C2)c1 (centres unmarked) [CBK305385] — lower, 93.1%
- CCc1cnccc1C(=O)N1CCC(NC(=O)c2cnn(C)c2)CC1 [CBK305388] — lower, 105%
